How the values were obtained:
[1] = tested on: J774 cells; test: J774 cell activation, surface markers by flow cytometry; format: cell-based, murine; details: 10 and 100 μM, with or without L. major
Method: Because of the strong in vivo effect of PZA, we studied the effect of treatment on macrophages. First, we looked at activation markers and cytokine secretion by J774 cells (a murine macrophage cell line) following treatment with PZA (10 and 100 μM) in the presence or absence of L. major infection (1:5 macrophage:parasite ratio) were examined. As a positive control, cells were exposed to a mixture of IFN-γ and LPS, known to increase the level of activation. Expression of surface molecules was determined in unstimulated cells, and on infected, untreated cultures. Twenty-four hours after infection and/or treatment, cells were collected and stained with fluorescent antibodies against the co-stimulatory molecules CD80 and CD86, as well as MHC Class II, and analyzed by flow cytometry.
J774 cells or bone marrow-derived cells were seeded onto 24-well plates at a concentration of 5×10^5 cells/ml. Twenty-four hours later, PZA was added to the wells at different concentrations in the absence or presence of L. major (1:5 parasite ratio). In some experiments, J774 cells were treated with amphotericin B (0.1, 0.5, or 1 μg/ml). […] For each sample, at least 50,000 cells were analyzed. The data were collected and analyzed using CELLQuest software and a FACScalibur flow cytometer (Becton Dickinson, San Jose, Calif.).

[2] = tested on: J774 cells; test: Cytokine (ELISA) and nitric oxide (Griess test) production in J774 cells; format: cell-based, murine; details: for production of cytokines (IL-12, TNF-α) and NO release: J774 cells, irrespective of infection (FIG. 14)
Method: The ability of J774 cells to produce cytokines in response to infection and/or treatment was also determined. Cells were infected, treated or activated as described above. The amount of the proinflammatory cytokines IL-12 and TNF-α (implicated in Thl response and parasite killing), as well as the repressive cytokine IL-10, was determined by ELISA in the culture supernatants. The level of nitric oxide was also determined in the same supernatants. PZA treatment alone increased cytokine production, especially IL-12 and TNF-α and NO release. […] Finally, to test the specificity of the immune activation by PZA, we determined the effect that amphotericin B treatment had on activation and cytokine expression by J774 cells.
(§1) J774 cells or bone marrow-derived cells were seeded onto 24-well plates at a concentration of 5×10^5 cells/ml. Twenty-four hours later, PZA was added to the wells at different concentrations in the absence or presence of L. major (1:5 parasite ratio). In some experiments, J774 cells were treated with amphotericin B (0.1, 0.5, or 1 μg/ml). Two control groups were also included in this experiment: a positive control of activation consisting in a group of uninfected cells treated with 100 ng/ml LPS and 10 IU IFN-γ as a positive control of activation, and a negative control of activation, consisting in uninfected, untreated cells. Cell cultures were maintained overnight, and then cultured for an additional 6 h with brefeldin A (10 μg/ml), harvested by scraping and fixed in 2% paraformaldehyde. Prior to staining, cells were incubated with an anti-Fc III/II receptor and 10% normal mouse serum (NMS) in PBS containing 0.1% BSA, 0.01% NaN3. Cells were permeabilized with saponin and stained for the surface markers CD80 (clone 16-10A1), CD86 (clone GL1), MHCI (clone 28-14-8), MHCII (clone M5/114.15.2) and for the cytokines IL-12p40/p70 (clone C17.8) and IL-10 (clone JESS-16E3). Incubations were carried out for 30 min on ice. All antibodies were purchased from BD Biosciences or eBioscience. For each sample, at least 50,000 cells were analyzed. The data were collected and analyzed using CELLQuest software and a FACScalibur flow cytometer (Becton Dickinson, San Jose, Calif.).

[3] = tested on: bone marrow-derived macrophages; test: Cytokine and NO production in bone marrow-derived macrophages; format: cell-based, C57BL/6 mice; set-up: unit not given here; details: macrophage, drug 100 μM
Method: (§2) Bone marrow cells were obtained and were grown in the presence of the cytokines M-CSF or GM-CSF to induce differentiation of macrophages or dendritic cells, respectively. The study of the immune response of dendritic cells was included because of their importance for the initiation of the immune response against L. major. […] Again, this effect was rescued by the treatment of macrophages with compounds of formula I, namely, either PZA or 5-Cl PZA.
(§3) Parasite and cell culture. L. major clone V1 (MHOM/IL/80/Friedlin) promastigotes were grown at 26° C. in medium 199 supplemented with 20% heat-inactivated fetal calf serum (FCS, Gemini, Sacramento), 100 U/ml penicillin, 100 μg/ml streptomycin, 2 mM L-glutamine, 40 mM Hepes, 0.1 mM adenine (in 50 mM Hepes) and […] hemin (in 50% triethanolamine). The macrophage murine cell line J774 (Cat. No. TIB-67TM) was cultured in DMEM (Sigma-Aldrich, St. Louis, Mo.) with 10% FCS, 100 U/ml penicillin, 100 μg/ml streptomycin and 2 mM glutamine (Sigma-Aldrich) at 37° C. under 5% CO2 atmosphere. Culture medium was changed twice per week. Subcultures were performed when monolayers covered 90% of the bottom of culture flasks. For experiments involving macrophages and dendritic cells, bone marrow was obtained from C57BL/6 mouse femurs and grown for 6-8 days in RPMI 1640 supplemented as above in the presence of 10% L929 conditioned medium (to generate macrophages) or 20 ng/ml GM-CSF (to generate dendritic cells).
as §1

[4] = tested on: bone marrow-derived dendritic cells; test: Cytokine and NO production in bone marrow-derived dendritic cells; format: cell-based, C57BL/6 mice; set-up: unit not given here; details: dendritic cell, drug 100 μM
Method: as §2, §3, §1

[5] = tested on: bone marrow-derived macrophages; test: Cytokine and NO production in bone marrow-derived macrophages; format: cell-based, C57BL/6 mice; set-up: unit not given here; details: macrophage, drug 100 μM; remark: listed apart in the source
[6] = tested on: bone marrow-derived dendritic cells; test: Cytokine and NO production in bone marrow-derived dendritic cells; format: cell-based, C57BL/6 mice; set-up: unit not given here; details: dendritic cell, drug 100 μM; remark: listed apart in the source
[7] = PZA-treated children, Zhu et al.; cited from earlier work
[8] = L. major-infected J774, PZA 10 μM
[9] = L. major-infected J774, PZA 100 μM

Compound | expression of costimulatory molecules CD80, CD86 and MHC Class II [1] | production of cytokines (IL-12, TNF-α) and NO release [2] | IL-10 production ([3]; infected with L. major (Lm)) | IL-12 production ([3]; infected with L. major (Lm)) | IL-10 production ([3]; uninfected) | IL-12 production ([3]; uninfected) | IL-10 production ([4]; infected with L. major (Lm)) | IL-12 production ([4]; infected with L. major (Lm)) | IL-10 production ([4]; uninfected) | IL-12 production ([4]; uninfected) | NO production ([5]; infected with L. major (Lm)) | TNF-α production ([5]; infected with L. major (Lm)) | NO production ([5]; uninfected) | TNF-α production ([5]; uninfected) | NO production ([6]; infected with L. major (Lm)) | TNF-α production ([6]; infected with L. major (Lm)) | NO production ([6]; uninfected) | TNF-α production ([6]; uninfected) | also measured
NC(=O)c1cnc(Cl)cn1 [5-Cl PZA, 5-chloro pyrazinamide] | enhanced | increased | 499 ± 312 | 1821 ± 645 | 415 ± 210 | 1767 ± 526 | 342 ± 398 | 2121 ± 945 | 265 ± 213 | 1962 ± 765 | 1599 ± 812 | 1928 ± 444 | 1145 ± 721 | 1598 ± 542 | 876 ± 172 | 2986 ± 566 | 745 ± 211 | 17684 ± 678 | proinflammatory cytokines stimulated relative to PZA ([2]; IL-2 production (FIG. 9B), also in Leishmania-infected macrophages): 2 ×
NC(=O)c1cnccn1 [PZA, pyrazinamide] | increased expression | increased | 199 ± 120 | 921 ± 445 | 155 ± 21 | 867 ± 546 | 203 ± 60 | 1035 ± 785 | 185 ± 63 | 956 ± 145 | 699 ± 112 | 921 ± 345 | 543 ± 221 | 758 ± 246 | 699 ± 612 | 1856 ± 125 | 545 ± 221 | 1654 ± 546 | IL-10 production [2, 8]: 109 ± 39 pg/mL; IL-12 production [2, 8]: 253 ± 68 pg/mL; Nitric Oxide production [2, 8]: 289 ± 55 pg/mL; TNF-α production [2, 8]: 259 ± 163 pg/mL; IL-10 production [2, 9]: 112 ± 44 pg/mL; IL-12 production [2, 9]: 299 ± 55 pg/mL; Nitric Oxide production [2, 9]: 498 ± 74 pg/mL; TNF-α production [2, 9]: 489 ± 154 pg/mL; IL-10 production ([2]; uninfected J774, PZA 10 μM): 112 ± 45 pg/mL; IL-12 production ([2]; uninfected J774, PZA 10 μM): 178 ± 38 pg/mL; Nitric Oxide production ([2]; uninfected J774, PZA 10 μM): 254 ± 44 pg/mL; TNF-α production ([2]; uninfected J774, PZA 10 μM): 245 ± 159 pg/mL; IL-10 production ([2]; uninfected J774, PZA 100 μM): 145 ± 56 pg/mL; IL-12 production ([2]; uninfected J774, PZA 100 μM): 359 ± 65 pg/mL; Nitric Oxide production ([2]; uninfected J774, PZA 100 μM): 476 ± 52 pg/mL; TNF-α production ([2]; uninfected J774, PZA 100 μM): 377 ± 105 pg/mL; serum concentration [7]: 41000 ng/mL

Source: patent US20120157396A1, “PYRAZINAMIDE FOR IMMUNOSTIMULATION AND THE TREATMENT OF LEISHMANIASES” (priority 2009, published 2012)
